Test results: patent US10829486B2, “Isoxazole derivatives as FXR agonists and methods of use thereof” (ENANTA PHARMACEUTICALS, INC., priority 2018, dated 2020)
pEC50: −log10 of the molar value.

Molecular target: T1, human FXR (NR1H4) (Homo sapiens, UniProt Q96RI1)
T1 construct: host or cells: CHO (Chinese hamster ovary) reporter cells
T1 sequence (Q96RI1 1-486): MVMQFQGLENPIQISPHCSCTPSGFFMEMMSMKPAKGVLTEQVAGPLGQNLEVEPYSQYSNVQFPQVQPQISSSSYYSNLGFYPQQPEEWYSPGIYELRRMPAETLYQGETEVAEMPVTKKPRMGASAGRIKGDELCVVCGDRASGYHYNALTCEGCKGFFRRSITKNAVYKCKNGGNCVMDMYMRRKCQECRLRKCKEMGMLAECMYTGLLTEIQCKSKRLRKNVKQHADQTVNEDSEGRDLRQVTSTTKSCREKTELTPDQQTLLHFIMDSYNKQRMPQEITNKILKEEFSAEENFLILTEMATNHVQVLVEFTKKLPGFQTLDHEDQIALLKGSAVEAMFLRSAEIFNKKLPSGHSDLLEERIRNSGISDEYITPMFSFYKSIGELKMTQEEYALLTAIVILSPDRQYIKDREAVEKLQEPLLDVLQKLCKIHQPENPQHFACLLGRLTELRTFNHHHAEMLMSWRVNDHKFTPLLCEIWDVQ
Assay: Human FXR (NR1H4) Assay (Gal4 promoter driven luciferase reporter assay in CHO cells)
Format: cell-based
Conditions: for pEC50: CHO cells expressing human NR1H4, 22 hours incubation, potency ranges; for Emax: efficacy normalized to CDCA set as 100%, CHO cells expressing human NR1H4
From the text: Determination of a ligand mediated Gal4 promoter driven transactivati on to quantify ligand binding mediated activation of FXR. FXR Reporter Assay kit purchased from Indigo Bioscience (Catalogue number: IB00601) to determine the potency and efficacy of compound developed by Enanta that can induce FXR activation. The principle application of this reporter assay system is to quantify functional activity of human FXR. The assay utilizes non-human mammalian cells, CHO (Chinese hamster ovary) cells engineered to express human NR1H4 protein (referred to as FXR). Reporter cells also incorporate the cDNA encoding beetle luciferase which catalyzes the substrates and yields photon emission. Luminescence intensity of the reaction is quantified using a plate-reading luminometer, Envision. Reporter Cells include the luciferase reporter gene functionally linked to an FXR responsive promoter. Thus, quantifying changes in luciferase expression in the treated reporter cells provides a sensitive surrogate measure of the changes in FXR activity. EC50 and efficacy (normalize to CDCA set as 100%) is determined by XLFit. The assay is according to the manufacturer's instructions. In brief, the assay was performed in white, 96 well plates using final volume of 100 ul containing cells with different doses of compounds. Retrieve Reporter Cells from −80° C. storage. Perform a rapid thaw of the frozen cells by transferring a 10 ml volume of 37° C. cell recovery medium into the tube of frozen cells. Recap the tube of Reporter Cells and immediately place it in a 37° C. water bath for 5-10 minutes. Retrieve the tube of Reporter Cell Suspension from the water bath. Sanitize the outside surface of the tube with a 70% alcohol swab, and then transfer it into the cell culture hood. Dispense 90 μl of cell suspension into each well of the 96-well Assay Plate. Transfer the plate into 37° C. incubator, allowing the cells adherent to the bottom of the well. Dilute compounds in Dilution Plate (DP), and administrate to cells at Assay Plate (AP). DMSO content of the samples was kept at 0.2%. Cells were incubated for additional 22 hours before luciferase activities were measured. Thirty minutes before intending to quantify FXR activity, remove Detection Substrate and Detection Buffer from the refrigerator and place them in a low-light area so that they may equilibrate to room temperature. Remove the plate's lid and discard all media contents by ejecting it into an appropriate waste container. Gently tap the inverted plate onto a clean absorbent paper towel to remove residual droplets. Cells will remain tightly adhered to well bottoms. Add 100 μl of luciferase detection reagent to each well of the assay plate. Allow the assay plate to rest at room temperature for at least 5 minutes following the addition of LDR. Set the instrument (Envision) to perform a single 5 second “plate shake” prior to reading the first assay well. Read time may be 0.5 second (500 mSec) per well. EC50 and Efficacy (normalize to CDCA set as 100%) is determined by XLFit.
The efficacy was normalized to CDCA set as 100%. (A=EC50<0.1 μM; B=0.1 μM<EC50<1.0 μM; C=1.0 μM<EC50<10 μM; D=EC50>10 μM).

Row | pEC50 | Emax [%] | SMILES
1 | > 7.00 | 99 | CC(C)Oc1cc(C(=O)O)cc2sc(N[C@@H]3CC[C@H](OCc4c(-c5c(Cl)cccc5Cl)noc4C4CC4)C3)nc12 [Example 8]
2 | > 7.00 | 85 | CC(C)Oc1cc(C(=O)O)cc2sc(N(C)[C@H]3CC[C@H](OCc4c(-c5c(Cl)cccc5Cl)noc4C4CC4)CC3)nc12 [Example 5]
3 | > 7.00 | 91 | CC(C)Oc1cc(C(=O)O)cc2sc(N[C@H]3CC[C@@H](OCc4c(-c5ccccc5OC(F)(F)F)noc4C4CC4)CC3)nc12 [Example 17]
4 | 6.00 to 7.00 | 116 | O=C(O)c1ccc2nc(N[C@@H]3CCC(OCc4c(-c5c(Cl)cccc5Cl)noc4C4CC4)C3)sc2c1 (stereo partly drawn) [Example 19]
5 | > 7.00 | 104 | O=C(O)c1cc(F)c2nc(N[C@@H]3CC[C@H](OCc4c(-c5c(Cl)cccc5Cl)noc4C4CC4)C3)sc2c1 [Example 9]
6 | 6.00 to 7.00 | 58 | CC(C)Oc1cc(C(=O)O)cc2sc(N(C)[C@H]3CC[C@H](OCc4c(-c5c(Cl)cccc5Cl)noc4C4CC4)C3)nc12 [Example 3]
7 | > 7.00 | 75 | CC(C)Oc1cc(C(=O)O)cc2sc(N(C)[C@H]3CC[C@@H](OCc4c(-c5c(Cl)cccc5Cl)noc4C4CC4)C3)nc12 [Example 2]
8 | > 7.00 | 84 | CC(C)Oc1cc(C(=O)O)cc2sc(N[C@H]3CC[C@@H](OCc4c(-c5c(Cl)cccc5Cl)noc4C4CC4)CC3)nc12 [Example 14, 2-(((1s,4s)-4-((5-cyclopropyl-3-(2,6-dichlorophenyl)isoxazol-4-yl)methoxy)cyclohexyl)amino)-4-isopropoxybenzo[d]thiazole-6-carboxylic acid]
9 | > 7.00 | 96 | CC(C)Oc1cc(C(=O)O)cc2sc(N(C)[C@@H]3CC[C@H](OCc4c(-c5c(Cl)cccc5Cl)noc4C4CC4)C3)nc12 [Example 1]
10 | > 7.00 | 81 | O=C(O)c1cc(F)c2nc(N[C@@H]3CCC(OCc4c(-c5ccccc5OC(F)(F)F)noc4C4CC4)C3)sc2c1 (stereo partly drawn) [Example 10]
11 | > 7.00 | 52 | O=C(O)c1ccc2nc(N[C@H]3CC[C@@H](OCc4c(-c5c(Cl)cccc5Cl)noc4C4CC4)CC3)sc2c1 [Example 18]
12 | > 7.00 | 57 | CN(c1ccc2cc(C(=O)O)ccc2n1)[C@@H]1CC[C@H](OCc2c(-c3ccccc3OC(F)(F)F)noc2C2CC2)C1 [Example 7]
13 | 6.00 to 7.00 | 111 | CC(C)Oc1cc(C(=O)NS(=O)(=O)C2CC2)cc2sc(N[C@@H]3CCC(OCc4c(-c5c(Cl)cccc5Cl)noc4C4CC4)C3)nc12 (stereo partly drawn) [Example 20]
14 | > 7.00 | 65 | CC(C)Oc1cc(C(=O)O)cc2sc(N(C)[C@H]3CC[C@@H](OCc4c(-c5c(Cl)cccc5Cl)noc4C4CC4)CC3)nc12 [Example 15, 2-(((1s,4s)-4-((5-cyclopropyl-3-(2,6-dichlorophenyl)isoxazol-4-yl)methoxy)cyclohexyl)(methyl)amino)-4-isopropoxybenzo[d]thiazole-6-carboxylic acid]
15 | 6.00 to 7.00 | 73 | CC(C)Oc1cc(C(=O)O)cc2sc(N(C)[C@@H]3CC[C@@H](OCc4c(-c5c(Cl)cccc5Cl)noc4C4CC4)C3)nc12 [Example 4]
16 | 6.00 to 7.00 | 24 | O=C(O)c1cc(F)c2nc(N[C@H]3CC[C@@H](OCc4c(-c5c(Cl)cccc5Cl)noc4C4CC4)CC3)sc2c1 [Example 16]
17 | > 7.00 | 67 | CC(C)Oc1cc(C(=O)O)cc2sc(N(C)[C@@H]3CC[C@H](OCc4c(-c5ccccc5OC(F)(F)F)noc4C4CC4)C3)nc12 [Example 6]
18 | > 7.00 | 92 | CC(C)Oc1cc(C(=O)O)cc2sc(N[C@@H]3CC[C@H](OCc4c(-c5ccccc5OC(F)(F)F)noc4C4CC4)C3)nc12 [Example 11]
